Reference: paper PMC3471028, “A Laccase with Antiproliferative and HIV-I Reverse Transcriptase Inhibitory Activities from the Mycorrhizal Fungus Agaricus placomyces” (Journal of Biomedicine and Biotechnology, 2012)
Counter-ions that a name gives are not always drawn.

Tested on: T1, A. placomyces laccase
T1 construct: gene EC 1.10.3.2; native, purified from fruiting bodies; 68 kDa monomer
Assay: spectrophotometric oxidation assay, Lineweaver-Burk plot
Type: biochemical, Agaricus placomyces
Conditions: 50 mM sodium acetate, pH 5.2, 30°C

Km	SMILES
775 µM	CCn1c(=NN=c2sc3cc(S(=O)(=O)O)ccc3n2CC)sc2cc(S(=O)(=O)O)ccc21 [ABTS, 2,7′-azinobis[3-ethylbenzothiazolone-6-sulfonic acid] diammonium salt]
392 µM	Oc1ccc(O)cc1 [hydroquinone]
